Measurements published in patent US8916575B2, “Quinazoline derivatives for the treatment of viral infections and further diseases” (Janssen R&D Ireland, priority 2011, dated 2014).

Assays:
[1] = system: human TLR8 mutant (dIRR2); experiment: TLR8 mutant (deletion in second leucine-rich repeat) NFκB-luc cellular reporter assay; assay type: cell-based; set-up: unit not given here; conditions: HEK293 NFκB-luc reporter, mutant TLR8, 6 hours incubation
Description: (§1) The ability of compounds to activate human TLR7 and/or TLR8 was assessed in a cellular reporter assay using HEK293 cells transiently transfected with a TLR7 or TLR8 expression vector and NFκB-luc reporter construct. In one instance the TLR expression construct expresses the respective wild type sequence or a mutant sequence comprising a deletion in the second leucine-rich repeat of the TLR.
(§2) Briefly, HEK293 cells were grown in culture medium (DMEM supplemented with 10% FCS and 2 mM Glutamine). For transfection of cells in 10 cm dishes, cells were detached with Trypsin-EDTA, transfected with a mix of CMV-TLR7 or TLR8 plasmid (750 ng), NFκB-luc plasmid (375 ng) and a transfection reagent and incubated 24 hours at 37° C. in a humidified 5% CO2 atmosphere. Transfected cells were then detached with Trypsin-EDTA, washed in PBS and resuspended in medium to a density of 1.67×10^5 cells/mL. Thirty microliters of cells were then dispensed into each well in 384-well plates, where 10 μL of compound in 4% DMSO was already present. Following 6 hours incubation at 37° C., 5% CO2, the luciferase activity was determined by adding 15 μl of Steady Lite Plus substrate (Perkin Elmer) to each well and readout performed on a ViewLux ultraHTS microplate imager (Perkin Elmer). Dose response curves were generated from measurements performed in quadruplicates. Lowest effective concentrations (LEC) values, defined as the concentration that induces an effect which is at least two fold above the standard deviation of the assay, were determined for each compound.

[2] = system: HCV replicon (Huh-7 luc/neo cells); experiment: Suppression of HCV replicon replication by conditioned media from PBMC; assay type: cell-based, HCV type 1b; conditions: Hepatitis C virus, compound concentration applied to PBMCs giving 50% reduction of replicon luciferase activity, read-out: PBMC-HUH7_EC50
Description: Activation of human TLR7 results in robust production of interferon by plasmacytoid dendritic cells present in human blood. The potential of compounds to induce interferon was evaluated by looking at the antiviral activity in the HCV replicon system upon incubation with conditioned media from peripheral blood mononuclear cells (PBMC). The HCV replicon assay is based on a bicistronic expression construct, as described by Lohmann et al. (Science (1999) 285: 110-113; Journal of Virology (2003) 77: 3007-15 3019) with modifications described by Krieger et al. (Journal of Virology (2001) 75: 4614-4624). The assay utilized the stably transfected cell line Huh-7 luc/neo harboring an RNA encoding a bicistronic expression construct comprising the wild type NS3-NS5B regions of HCV type 1b translated from an Internal Ribosome Entry Site (IRES) from encephalomyocarditis virus (EMCV), preceded by a reporter gene (Firefly-luciferase) and a selectable marker gene (neoR, neomycine phosphotransferase). The construct is flanked by 5′ and 3′ NTRs (non-translated regions) from HCV type 1b. Continued culture of the replicon cells in the presence of G418 (neoR) is dependent on the replication of the HCV RNA. The stably transfected replicon cells that replicate HCV RNA autonomously and to high levels, encoding inter alia luciferase, were used for profiling of the conditioned cell culture media.
Briefly, PBMCs were prepared from buffy coats of at least two donors using a standard Ficoll centrifugation protocol. Isolated PBMCs were resuspended in RPMI medium supplemented with 10% human AB serum and 2×10^5 cells/well were dispensed into 384-well plates containing compounds (70 μL total volume). After overnight incubation, 10 μL of supernatant was transferred to 384-well plates containing 2.2×10^3 replicon cells/well in 30 μL (plated the day before). Following 24 hours of incubation, replication was measured by assaying luciferase activity using 40 μL/well Steady Lite Plus substrate (Perkin Elmer) and measured with ViewLux ultraHTS microplate imager (Perkin Elmer). The inhibitory activity of each compound on the Huh7-luc/neo cells were reported as EC50 values, defined as the compound concentration applied to the PBMCs resulting in a 50% reduction of luciferase activity which in turn indicates the degree of replication of the replicon RNA on transfer of a defined amount of PBMC culture medium. Recombinant interferon α-2a (Roferon-A) was used as a standard control compound.

[3] = system: human TLR7 mutant (dIRR2); experiment: TLR7 mutant (deletion in second leucine-rich repeat) NFκB-luc cellular reporter assay; assay type: cell-based; set-up: unit not given here; conditions: HEK293 NFκB-luc reporter, mutant TLR7, 6 hours incubation
Description: as §1, §2

SMILES	TLR8-dIRR2_LEC [1]	EC50 [2] [µM]	TLR7-dIRR2_LEC [3]
CCCCNc1nc(N)nc2cc(OC)c(OC)cc12 [Compound 1]	0.6	1.9	0.4
CCCC[C@@H](CCO)Nc1nc(N)nc2cc(OC)c(OC)cc12 [Compound 3]	2.4	0.6	0.9
